Measurements from patent US20030073132A1, “Method for the screening of alpha2delta-1 subunit binding ligands” (priority 1999, published 2003).
“And” between values parts separate entries of the source, which are not always exact repeats. Equal values may be shown once. Read-outs that look alike come from different tables or passages of the source.

Tests used:
[1] = biological target: porcine α2δ-1b-6His (SEQ ID No 9) (Sus scrofa, UniProt A0A287BIN3); details: [3H]gabapentin 10-13 nM
Experimental: Assays were carried out at 21° C. in a final volume of 250 μl in 96-well NEN Ni chelate flash plates. Wells were set up for both ‘total’ and ‘non-specific’ binding. Specific binding was defined as that remaining after subtraction of the average of the ‘non-specific binding’ values from the average of the ‘total’ binding values. Assay components were added in the following order (all reagents were diluted in 10 mM HEPES (pH 7.4 at 21° C.)):
Immediately after adding radioligand, flash plates were loaded in the Packard Top Count scintillation counter to follow the binding time course. Incubation time before the assay was 3 hours. The ‘[^3H] flash plate’ programme (cpm) was used to monitor activity. Specific binding was ˜98% of the ‘total’ value. Imidazole was used in the assay to optimize the specific interaction of the protein's 6His tag with the Ni flashplate.
GraphPad Prism software was used to process competition curve data and determine IC50 and hill slope values. Twelve point competition curves with half log dilution steps of test compounds were used in the experiments.

[2] = biological target: [^3H]gabapentin site in porcine cortical membranes (Sus scrofa, UniProt O77773); details: saturation binding analyses on porcine synaptic plasma cerebral cortex membranes in the presence of L-leucine; cited from earlier work
[^3H]gabapentin site in porcine cortical membranes, sequence (O77773 25-1091): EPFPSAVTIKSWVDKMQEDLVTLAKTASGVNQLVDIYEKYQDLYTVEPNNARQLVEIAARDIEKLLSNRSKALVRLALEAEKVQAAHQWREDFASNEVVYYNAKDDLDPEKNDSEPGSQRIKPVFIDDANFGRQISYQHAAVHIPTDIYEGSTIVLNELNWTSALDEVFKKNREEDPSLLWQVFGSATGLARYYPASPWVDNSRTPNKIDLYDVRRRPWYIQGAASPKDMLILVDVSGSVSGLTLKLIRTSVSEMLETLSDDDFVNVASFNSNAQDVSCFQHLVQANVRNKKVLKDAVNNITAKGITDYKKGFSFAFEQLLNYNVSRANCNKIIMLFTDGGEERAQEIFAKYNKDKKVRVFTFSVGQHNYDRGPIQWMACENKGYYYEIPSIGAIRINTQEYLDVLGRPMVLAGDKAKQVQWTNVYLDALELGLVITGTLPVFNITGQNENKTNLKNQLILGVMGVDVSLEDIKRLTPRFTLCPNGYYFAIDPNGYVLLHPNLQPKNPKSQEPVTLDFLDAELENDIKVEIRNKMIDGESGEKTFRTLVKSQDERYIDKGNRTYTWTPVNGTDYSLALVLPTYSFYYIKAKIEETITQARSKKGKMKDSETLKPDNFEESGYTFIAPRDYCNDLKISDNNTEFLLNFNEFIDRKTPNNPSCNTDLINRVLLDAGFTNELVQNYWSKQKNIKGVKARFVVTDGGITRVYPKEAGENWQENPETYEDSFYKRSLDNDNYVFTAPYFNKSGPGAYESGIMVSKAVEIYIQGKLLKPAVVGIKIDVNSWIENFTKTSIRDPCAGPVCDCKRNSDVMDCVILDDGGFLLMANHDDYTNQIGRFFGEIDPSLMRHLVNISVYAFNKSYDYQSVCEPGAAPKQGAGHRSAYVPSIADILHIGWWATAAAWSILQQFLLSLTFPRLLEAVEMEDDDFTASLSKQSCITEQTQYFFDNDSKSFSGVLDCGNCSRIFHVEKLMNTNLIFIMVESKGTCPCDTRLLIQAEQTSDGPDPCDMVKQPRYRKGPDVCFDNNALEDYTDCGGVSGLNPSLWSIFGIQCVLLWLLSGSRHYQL

[3] = read-out: Ki, Flash plate (3 μl protein used, n = 2), single experiments, Ki = IC50/(1 + [L]/KD), 3 h incubation
[4] = read-out: Ki, Flash plate, Mean (geometric), geometric mean of n = 2

porcine α2δ-1b-6His (SEQ ID No 9), sequence (A0A287BIN3 25-1109 limits assumed): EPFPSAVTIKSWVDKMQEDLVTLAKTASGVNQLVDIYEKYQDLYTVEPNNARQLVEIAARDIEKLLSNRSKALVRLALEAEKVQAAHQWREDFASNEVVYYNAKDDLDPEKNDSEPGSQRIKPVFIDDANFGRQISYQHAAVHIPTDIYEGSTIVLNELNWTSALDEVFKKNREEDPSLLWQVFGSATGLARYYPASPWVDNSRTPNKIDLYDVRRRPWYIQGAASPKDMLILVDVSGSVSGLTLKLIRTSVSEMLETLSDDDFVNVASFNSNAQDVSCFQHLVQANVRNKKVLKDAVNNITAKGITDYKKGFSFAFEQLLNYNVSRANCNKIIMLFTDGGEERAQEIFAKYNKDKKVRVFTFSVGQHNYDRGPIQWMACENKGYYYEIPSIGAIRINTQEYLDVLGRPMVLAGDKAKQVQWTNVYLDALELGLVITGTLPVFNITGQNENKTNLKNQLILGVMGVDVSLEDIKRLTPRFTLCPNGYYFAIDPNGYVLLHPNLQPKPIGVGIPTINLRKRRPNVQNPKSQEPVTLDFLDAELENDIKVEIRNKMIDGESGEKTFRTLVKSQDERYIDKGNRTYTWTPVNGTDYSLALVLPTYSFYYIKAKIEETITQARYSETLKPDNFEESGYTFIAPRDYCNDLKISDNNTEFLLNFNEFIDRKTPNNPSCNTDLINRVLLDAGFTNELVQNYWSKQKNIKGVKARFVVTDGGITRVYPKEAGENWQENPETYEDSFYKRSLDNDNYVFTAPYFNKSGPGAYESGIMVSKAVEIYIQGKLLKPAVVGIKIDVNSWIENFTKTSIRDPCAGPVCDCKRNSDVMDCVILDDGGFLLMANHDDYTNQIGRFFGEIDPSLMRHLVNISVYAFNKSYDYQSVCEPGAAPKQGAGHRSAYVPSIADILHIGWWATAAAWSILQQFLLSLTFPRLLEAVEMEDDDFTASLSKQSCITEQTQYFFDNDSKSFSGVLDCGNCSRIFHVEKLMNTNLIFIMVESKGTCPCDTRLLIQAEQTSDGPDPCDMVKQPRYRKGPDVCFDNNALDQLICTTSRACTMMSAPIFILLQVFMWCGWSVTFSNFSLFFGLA

CC(C)C[C@@H](CN)CC(=O)O [(R-)-3-isobtyl GABA, (R−)-3-Isobutyl GABA]
Ki [1, 3]: 157 nM and 207 nM
Ki [1, 4]: 180 nM

CC(C)C[C@H](CN)CC(=O)O [(S+)-3-isobutyl GABA]
Ki [1, 3]: 10.9 nM and 7.58 nM
Ki [1, 4]: 9.09 nM

CC(C)C[C@H](N)C(=O)O [L-Leucine]
interaction with the [3H]gabapentin binding site [2]: competitive interaction
